Read-outs that look alike come from different tables or passages of the source.
What was measured:
cGMP-PDE V [1] = test: c-GMP-PDE V inhibitory activity; assay type: biochemical, various animal species and man
Procedure: The cGMP-PDE and other PDE isozymes were isolated from cardiovascular tissues (heart and aorta) of various animal species and man by anion-exchange and affinity chromatography as described by Silver et al., Sec. Messeng. Phos. 13:13-25, 1991; PDE activity, in the presence and absence of test compounds was determined essentially as described by Thompson et al., Adv. Cyclic Nucleotide Res. 10:69-92. To determine the potency and selectivity of compounds as PDE inhibitors, compounds are screened for their effect on cyclic nucleotide hydrolysis at 10 μM. […] The IC50 values are calculated from concentration-response curves as described by Tallarida and Murray, Manual of Pharmacologic Calculations with Computer Programs, Procedure 8, Graded Dose-response, pp. 14-19, Springer-Verlag, New York, 1981.

[2] = test system: Spontaneously hypertensive rats (SHR); test: Antihypertensive activity in spontaneously hypertensive rats, iv; assay type: in vivo, rat; settings: Rattus norvegicus, 5 min, 10 mg/kg, cumulative dosing, 5 minutes after dose, read-out: % change in mean arterial pressure
Procedure: After a 2 day recovery from surgery, three baseline blood pressure measurements were made at 5 min intervals in conscious SHR. Compounds to be tested or vehicle were then administered intravenously in a dose-dependent manner (0.3-10 mg base/kg) while arterial pressure was recorded continuously on a polygraph. The mean arterial pressure response was measured 5 minutes after the administration of each dose of the test compound and the next dose given in a cumulative dose fashion. The response to each dose of the test compound was calculated as the difference from the mean of the three baseline measurements.

[3] = test system: Spontaneously hypertensive rats; test: Reversal of nitrate-induced tolerance in nitroglycerin tolerant spontaneously hypertensive rats; assay type: in vivo, rat
Procedure: Spontaneously hypertensive rats (17-25 weeks of age) were made nitroglycerin tolerant by repeated administration of high doses of nitroglycerin (100 mg/kg, s.c., 3 times/day for 3 consecutive days). To confirm tolerance challenge doses of nitroglycerin were administered intravenously at doses ranging from 1-300 μg/kg and the maximum change in mean arterial pressure (MAP) for each dose was recorded. Groups of tolerant rats were pretreated with the compounds of the invention (tolerant pretreated group) or with vehicle (0.05 N NaOH) (tolerant vehicle pretreated group) intravenously 5-10 minutes prior to administration of challenge doses of nitroglycerin. The administration of challenge doses of nitroglycerin to non-tolerant rats (the non-tolerant group) caused a dose-dependent decrease in MAP of between 10 to 40 mm Hg. […] The area under the dose-MAP curve was calculated for the non-tolerant group and for the tolerant vehicle pretreated group and the tolerant pretreated group. The percent reversal of nitrate-induced tolerance was calculated as follows:
Percent Reversal=(AUCtol-pretreated -AUCtol-veh) /(AUCnontol
AUCnontol =the area under the dose-MAP curve for the non-tolerant group.
AUCtol-veh =the area under the dose-MAP curve for the tolerant vehicle pretreated group.
AUCtol-pretreated =the area under the dose-MAP curve for the tolerant pretreated group. […]

[4] = Crenshaw et al., J. Med. Chem. 1976; cited from earlier work
cGMP-PDE V [5] = settings: read-out: Km for the hydrolysis of cGMP; isozyme of vascular smooth muscle and renal cells; cited from earlier work

Which IC50 (cGMP-PDE V [1]) does the source give for `CCn1ncc2c(NCC3CCCCC3)c3cc(OCC4CO4)ccc3nc21` (stereo not drawn) [Example 21, 1-ethyl-6-(2,3-epoxypropoxy)-N-(cyclohexylmethyl)-1H-pyrazolo[3,4-b]quinolin-4amine] here?
The IC50 was 91 nM.

What about the change in vivo at 10 mg/kg [2] of the same molecule?
Its change in vivo at 10 mg/kg is -12%.

With `CCn1ncc2c(NCC3CCCCC3)c3cc(OC(C)C(=O)O)ccc3nc21` (stereo not drawn) [Example 22, 1-ethyl-6-(1-carboxyethoxy)-N-(cyclohexylmethyl)-1H-pyrazolo[3,4-b]quinolin-4-amine] as the molecule, how does the IC50 (cGMP-PDE V [1]) read?
Its IC50 is 74 nM.

What about the change in vivo at 10 mg/kg [2] of the same molecule?
Its change in vivo at 10 mg/kg is -7%.

For `CCn1ncc2c(N[C@@H](C)C3CCCCC3)c3cc([N+](=O)[O-])ccc3nc21` [Example 34, 1-ethyl-6-nitro-N-[S(+)-1-(cyclohexyl)ethyl]-1H-pyrazolo[3,4-b]quinolin-4-amine], which IC50 (cGMP-PDE V [1]; separate experimental runs, first value) is on record?
The IC50 was 0.22 nM.

What about the IC50 (cGMP-PDE V [1]; separate experimental runs, second value) of the same molecule?
The IC50 was 0.16 nM.

And the IC50 (cGMP-PDE V [1]; separate experimental runs, third value)?
The IC50 was 0.08 nM.

What about the “Percent (%) Reversal of Nitroglycerin-induced Tolerance” value ([3]; 1.0 mg/kg, intravenously 5-10 minutes prior to nitroglycerin challenge) of the same molecule?
The value was 44%.

For `Cc1nn(C)c2nc3ccccc3c(NCCCNC34CC5CC(CC(C5)C3)C4)c12` [N-(1,3-dimethyl-1H-pyrazolo[3,4-b]quinolin-4-yl)-N'-tricyclo[3.3.1.1^3.7]dec-1-yl-1,3-propane diamine], which “activity in the interferon assay” value [4] is on record?
Its value is “inactive”.

For `Cc1nn(C)c2nc3ccccc3c(NCc3cccnc3)c12` [N-(3-pyridinylmethyl)], which “activity in the interferon assay” value [4] is on record?
The value was “inactive”.

For `Cc1nn(C)c2nc3ccccc3c(NCc3ccccc3N(C)C)c12` [N-[[2-(dimethylamino)phenyl]methyl]-1,3-dimethyl-1H-pyrazolo[3,4-b]quinolin-4-amines], which “activity in the interferon assay” value [4] is on record?
Its value is “inactive”.

Which “activity in the interferon assay” value [4] does the source give for `Cc1nn(C)c2nc3ccccc3c(NC3CC3)c12` [N-cyclopropyl] here?
The value was “inactive”.

Which “activity in the interferon assay” value [4] does the source give for `Cc1nn(C)c2nc3ccccc3c(NC34CC5CC(CC(C5)C3)C4)c12` [N-tricyclo[3.3.1.13,7]dec-1-yl] here?
The value was “inactive”.

For `Nc1nc2c(ncn2[C@@H]2O[C@@H]3COP(=O)(O)O[C@H]3[C@H]2O)c(=O)[nH]1` [cGMP, cyclic guanosine monophosphate], which Km (cGMP-PDE V [5]) is on record?
Its Km is 1 µM.

With `O=[N+]([O-])OCC(CO[N+](=O)[O-])O[N+](=O)[O-]` [nitroglycerin, reference compound] as the molecule, how does the “hypotensive response to challenge doses of nitroglycerin, in words” value ([3]; tolerant vehicle pretreated group) read?
Its value is “significant reduction of the hypotensive response”.
